Test system: RAX (acetoacetyl-CoA reductase)
Assay: Ethyl 4-chloroacetoacetate reducing activity of RAX in the presence of inhibitors
Format: biochemical
Conditions: for enzyme activity inhibited (in words): summary of Table 1
[1] = inhibitor 1.0 mM, 10 mM ethyl 4-chloroacetoacetate, 0.25 mM NADPH, pH 6.5, 30° C., 3 minutes, activity without inhibitor = 100%

Row | Structure (SMILES) | enzyme activity inhibited (in words) | Relative activity [1] [%] | further results
1 | O=[N+]([O-])[O-].[Ag+] [AgNO3, silver nitrate] | inhibited |  | Relative activity (inhibitor 0.1 mM, 10 mM ethyl 4-chloroacetoacetate, 0.25 mM NADPH, pH 6.5, 30° C., 3 minutes, activity without inhibitor = 100%): 0%
2 | [Cl-].[Cl-].[Co+2] [CoCl2] |  |  | Relative activity (pH 6.5): 108%
3 | O=S(=O)([O-])[O-].[Cu+2] [CuSO4, copper sulfate] | inhibited | 0 | 
4 | O=C(O)CN(CCN(CC(=O)O)CC(=O)O)CC(=O)O [EDTA] |  |  | Relative activity (pH 6.5): 83%
5 | [Cl][Hg][Cl] [HgCl2, mercury chloride] | inhibited |  | Relative activity (inhibitor 0.01 mM, 10 mM ethyl 4-chloroacetoacetate, 0.25 mM NADPH, pH 6.5, 30° C., 3 minutes, activity without inhibitor = 100%): 0%
6 | O=C(O)CI [Iodoacetic acid] |  |  | Relative activity (pH 6.5): 98%
7 | O=S(=O)([O-])[O-].[Mg+2] [MgSO4] |  | 100 | 
8 | [Cl][Mn][Cl] [MnCl2] |  | 97 | 
9 | CCN1C(=O)C=CC1=O [N-Ethylmaleimide] |  | 103 | 
10 | O=S(=O)(F)Cc1ccccc1 [Phenylmethylsulfonyl fluoride] |  | 108 | 
11 | O=S(=O)([O-])[O-].[Zn+2] [ZnSO4] |  | 81 | 
12 | O=C(O)c1cc[c]([Hg][Cl])cc1 [p-Chloromercuribenzoic acid] | inhibited | 0 | 
